Assay results taken from patent US20200030278A1, “PHARMACEUTICAL COMPOSITIONS OF METAP-2 INHIBITORS” (Zafgen, Inc., priority 2017, published 2020).
Like-named read-outs stand apart in the source and are kept apart here.

Columns and labels:
[1] = logD7.4 (physicochemical properties); details: pH 7.4
[2] = pKa (physicochemical properties)
Solubility (pH 7) = assay type: physicochemical; details: pH 7, aqueous buffer
[3] = Pharmacokinetics after intravenous administration in rats; details: in vivo, Rat, IV Bolus, 1 mg/kg
Method: (§1) Animal experiments were performed in accordance with the Guide for the Care and Use of Laboratory Animals as adopted and promulgated by the U.S. National Institutes of Health or local equivalent and were approved by the Institution's Animal Care and Use Committee or local equivalent. Unless described otherwise, animals (mouse, rat, and dog studies) were maintained under standard conditions (12-hour light/dark cycle and approximately 21±4° C. and 55±15% relative humidity), and food (Rodent pellet chow [Research Diets, Brunswick N.J., or similar] or canine pellet [Certified Dog Diet 2021C, Harlan Teklad Diets, Madison, Wis.] or canned [i.e., Cesar® Mars Petcare, Victoria, Australia]) and water were available ad libitum. Unless described otherwise, drug formulations were administered s.c. daily (efficacy studies) or every 3 days (Q3D; safety studies).

[4] = Pharmacokinetics after intravenous administration in dogs; details: in vivo, Dog, IV Bolus, 1 mg/kg
Method: as §1

[5] = Pharmacokinetics after subcutaneous administration in humans; assay type: in vivo, Human
Source text: (§2) Assessment of differences in pharmacokinetics following subcutaneous administration reflect both differences in the pharmacokinetic properties of the compounds and differences in pharmaceutical factors that affect absorption of the formulations from the injection sites.

[6] = Pharmacokinetics after subcutaneous administration in rats; assay type: in vivo; details: plasma; Rat, SC, 6 mg/kg
Method: as §1, §2

[7] = Pharmacokinetics after subcutaneous administration in dogs; assay type: in vivo; details: plasma; Dog, SC, 1 mg/kg
Method: as §1, §2

[8] = Pharmacokinetics after subcutaneous administration in rabbits; assay type: in vivo, Rabbit
Source text: as §2

[9] = Protein binding in rat plasma (dialysis); assay type: in vitro ADME; details: Rat Plasma, read-out: % Bound (converted)
[10] = Protein binding in dog plasma (dialysis); assay type: in vitro ADME; details: Dog Plasma, read-out: % Bound (converted)
plasma proteins [11] = assay: Protein binding in dog plasma (dialysis); assay type: in vitro ADME; details: plasma; dog, summary over concentrations; read-out: bound to plasma proteins
[12] = Protein binding in mouse plasma (dialysis); assay type: in vitro ADME; details: read-out: % Bound (converted)
[13] = Protein binding in human plasma (dialysis); assay type: in vitro ADME; details: Human Plasma, read-out: % Bound (converted)
plasma proteins [14] = assay: Protein binding in human plasma (dialysis); assay type: in vitro ADME; details: plasma; human, summary over concentrations; read-out: bound to plasma proteins
[15] = Red blood cell partitioning; assay type: in vitro ADME; details: Compound A compared with beloranib
[16] = Duration of plasma exposure after subcutaneous dosing, summary over species; assay type: in vivo, rat, dog, rabbit, human
[17] = Toxicology study in the rat, s.c. Q3D for 28 days; assay type: in vivo, Sprague Dawley rats; details: for NOAEL at 28 days / AUC(0-t) / Cmax: Sprague Dawley; for AUC(0-t) / Cmax: 6 mg/kg, NOAEL 6 mg/kg; for AUC(0-t): read-out: AUC0-t at NOAEL
Method: Male and female Sprague Dawley rats 9-10 weeks of age (Envigo RMS, Inc., Indianapolis, Ind. or Orient Bio Inc., Gyeonggi-do, South Korea) were individually housed at the testing facility. […] Animals were allocated to treatment groups based on body weight, and body weight and food consumption were recorded weekly. […] At necropsy, macroscopic pathologic findings were recorded, sperm motility and morphology were determined, selected organs were weighed, and selected tissues were collected for microscopic examination.

[18] = Hepatocyte incubation, metabolic profile, rat; assay type: in vitro ADME
[19] = Hepatocyte incubation, metabolic profile, dog; assay type: in vitro ADME
[20] = Hepatocyte incubation, metabolic profile, human; assay type: in vitro ADME
[21] = dog, in vivo, sc
Method: (§3) Male and female beagle dogs of 9 to 11 months of age for PK characterization were individually housed at the testing facility Approximately 325 g of pelleted food was provided daily. […] Animals were observed twice daily for signs of ill health, morbidity, mortality, injury, and viability, and detailed clinical observations were conducted daily (including urine/fecal examination and hands-on examination). Food was weighed daily, and body weights were recorded at least weekly.
(§4) Samples were collected in tubes containing lithium heparin and processed for plasma by centrifugation (10 minutes at 3000 rpm). Supernatant was removed and stored frozen (−70° C.) until processed (BASi, West Lafayette, Ind.). Plasma drug concentration data were used to calculate PK parameters for individual concentration data using noncompartmental PK methods in Watson™ version 7.3.0.01 (Thermo Fisher Scientific, Inc., Waltham, Mass.).

[22] = Pharmacokinetic study in dogs, single s.c. injection (Example 3); details: both, beagle, dog, plasma, sc, 0.6 mg/kg
Method: as §3, §4

[23] = female, rat, in vivo, sc, Day 1, female rats
[24] = female, rat, in vivo, sc, Day 28, female rats
[25] = male, rat, in vivo, sc, Day 28, male rats

## CO[C@@H]1[C@H](OC(=O)N2CC(CCN3CCOCC3)C2)CC[C@]2(CO2)[C@H]1[C@@]1(C)O[C@@H]1CC=C(C)C [Compound A]
[1]
  logD7.4: 2.28
[2]
  pKa: 7.17
Solubility (pH 7)
  solubility: > 100 mg/mL
[3]; kel and dependent parameters estimated using two time points
  clearance: 252 mL/min/kg
[3]; kel and dependent parameters estimated using two time points (1 and 2 hours)
  half-life: 93 ± 62.4 min
[3]; kel and dependent parameters estimated using two time points, read-out: Vdss
  Vd: 2.11 ± 0.1 L/kg
[4]
  clearance: 45.3 mL/min/kg
  half-life: 39.7 ± 6.06 min
[4]; read-out: Vdss
  Vd: 1.48 ± 0.17 L/kg
[5]; Human, SC, 2.4 mg
  Cmax: 13.5 ± 2.7 ng/mL
  Tmax: 15 ± 0 min
  kel: 1.09 ± 0.34 h⁻¹
[5]; Human, SC, 2.4 mg, estimated from subcutaneous dosing
  Vdss: 3.78 ± 1.54 L/kg
[5]; humans, 2.4 mg subcutaneous dose
  plasma concentration at 8 hours after dosing: not quantifiable
[5]; plasma, Human, SC, 2.4 mg
  AUC(0-inf): 8.05 ± 1.42 ng·h/mL
  half-life: 40.9 ± 11.9 min
[6]
  AUC(0-t): 391 ± 54 ng·h/mL
  Cmax: 323 ± 26 ng/mL
  Tmax: 17.5 ± 5.04 min
[7]
  AUC(0-t): 348 ± 42 ng·h/mL
  Cmax: 122 ± 29 ng/mL
  Tmax: 55 ± 10 min
  half-life: 62.4 ± 18 min
[8]; plasma, Rabbit, SC, 1 mg/kg
  AUC(0-t): 207 ± 45 ng·h/mL
  Cmax: 173 ± 34 ng/mL
  Tmax: 19.8 ± 8.4 min
  half-life: 36.9 ± 10.1 min
[8]; rabbit, subcutaneous, last sampling time 8 hours
  time after dosing at which plasma concentrations were below the lower limit of quantification: ≤ 4 h
[9]; intended 5 nM, actual 3.64 nM at end of 4-hour dialysis
  fraction unbound at 4 h, 5 nM: 0.323
[9]; intended 10 nM, actual 7.60 nM
  fraction unbound at 4 h, 10 nM: 0.29
[9]; intended 50 nM, actual 39.7 nM
  fraction unbound at 4 h, 50 nM: 0.426
[9]; intended 100 nM, actual 76.0 nM
  fraction unbound at 4 h, 100 nM: 0.466
[9]; intended 500 nM, actual 370 nM
  fraction unbound at 4 h, 500 nM: 0.451
[9]; intended 1000 nM, actual 595 nM
  fraction unbound at 4 h, 1000 nM: 0.566
[10]; intended 5 nM, actual 3.17 nM at end of 4-hour dialysis
  fraction unbound at 4 h, 5 nM: 0.311
[10]; intended 10 nM, actual 6.05 nM
  fraction unbound at 4 h, 10 nM: 0.406
[10]; intended 50 nM, actual 32.0 nM
  fraction unbound at 4 h, 50 nM: 0.326
[10]; intended 100 nM, actual 59.1 nM
  fraction unbound at 4 h, 100 nM: 0.403
[10]; intended 500 nM, actual 320 nM
  fraction unbound at 4 h, 500 nM: 0.457
[10]; intended 1000 nM, actual 527 nM
  fraction unbound at 4 h, 1000 nM: 0.469
Plasma proteins [11]
  fraction unbound at 4 h: 0.3 to 0.6
[12]; intended 5 nM, actual 5.20 nM at end of 4-hour dialysis
  fraction unbound at 4 h, 5 nM: 0.298
[12]; intended 10 nM, actual 11.1 nM
  fraction unbound at 4 h, 10 nM: 0.293
[12]; intended 50 nM, actual 56.4 nM
  fraction unbound at 4 h, 50 nM: 0.302
[12]; intended 100 nM, actual 112 nM
  fraction unbound at 4 h, 100 nM: 0.333
[12]; intended 500 nM, actual 496 nM
  fraction unbound at 4 h, 500 nM: 0.377
[12]; intended 1000 nM, actual 868 nM
  fraction unbound at 4 h, 1000 nM: 0.46
[13]; intended 5 nM, actual 1.49 nM at end of 4-hour dialysis
  fraction unbound at 4 h, 5 nM: 0.664
[13]; intended 10 nM, actual 3.14 nM
  fraction unbound at 4 h, 10 nM: 0.681
[13]; intended 50 nM, actual 15.5 nM
  fraction unbound at 4 h, 50 nM: 0.688
[13]; intended 100 nM, actual 32.7 nM
  fraction unbound at 4 h, 100 nM: 0.694
[13]; intended 500 nM, actual 165 nM
  fraction unbound at 4 h, 500 nM: 0.704
[13]; intended 1000 nM, actual 338 nM
  fraction unbound at 4 h, 1000 nM: 0.748
Plasma proteins [14]
  fraction unbound: 0.65 to 0.75
[15]
  red blood cell partitioning: similar
[16]; all species
  time for concentrations in plasma to return to baseline: ≤ 8 h
[16]; dosing once every 3 days in animals and twice a week in humans
  interval between doses with plasma concentrations at background / minimal exposure: approximately 54 hours
[17]; rat, in vivo, sc, female rats, s.c. Q3D, 4 weeks, read-out: NOAEL (F)
  NOAEL at 28 days: 6 mg/kg
[17]; rat, in vivo, sc, male rats, s.c. Q3D, 4 weeks, read-out: NOAEL
  NOAEL at 28 days: 6 mg/kg
[17]; both sexes, rat, in vivo, sc, Day 1, male rats
  AUC(0-t): 349 ng·h/mL
[17]; [23]
  Cmax: 278 ng/mL
  AUC(0-t): 262 ng·h/mL
[17]; [24]
  Cmax: 412 ng/mL
  AUC(0-t): 288 ng·h/mL
[17]; male, rat, in vivo, sc, Day 1, male rats
  Cmax: 351 ng/mL
[17]; [25]
  Cmax: 426 ng/mL
  AUC(0-t): 409 ng·h/mL
[17]; rat, in vivo, sc, 25 mg/kg
  tolerability of the highest dose: well tolerated
[17]; rats, s.c. Q3D, 4 weeks
  Mortality/early euthanasia: no mortality and None
[18]
  metabolic profile / predominant pathway in hepatocytes: higher amount of GSH-metabolism than for dog and human hepatocytes
[19]
  metabolic profile / predominant pathway in hepatocytes: oxidative (CYP-mediated) metabolism being predominant
[20]
  metabolic profile / predominant pathway in hepatocytes: oxidative (CYP-mediated) metabolism being predominant
[21]
  plasma concentration after the 4-hour timepoint: undetectable
[22]
  half-life: 24 min
